Data reported in patent publication US20150125509A1, “TREATMENT OF FISH POPULATIONS WITH LUFENURON” (priority 2012, published 2015).

Tested on: L. salmonis
Assay: Example 1: in-feed treatment in sea water, natural sea louse infestation, L. salmonis counts
Format: in vivo, Lepeophtheirus salmonis on Atlantic Salmon, S. salar
Conditions: for L. salmonis: all stages, Treated, average group counts / L. salmonis: pre- & adults, Efficacy / L. salmonis: pre- & adults, Treated, average group counts: sea water
Method: Three groups of 150 salmon (Atlantic Salmon, S. salar) of average weight 238 g were treated with medicated pellets containing lufenuron at a dose of respectively 3, 5 and 10 mg/kg/day during 7 consecutive days. The medicated pellets were prepared by dry coating commercially available fish feed pellets with a lufenuron-containing pre-mix to reach a content of 0.03, 0.05 and 0.1% (w/w) lufenuron in the fish feed and administered at a 1% feeding rate. The treatment was carried out in sea water.
Each group was maintained in a separate cage. A fourth cage containing 150 salmon of average weight 238 g was added to the study as a non-treated control group.
After treatment, the fish were exposed to natural sea louse infestation for a period of 9 months. During the study the water temperature varied between 4 and 12° C. Fish weight and sea louse numbers were assessed 1 day post-treatment, 1 week post-treatment and afterwards on a monthly basis until month 9. Counts were conducted on 10 fish at each sampling occasion. The numbers of chalimus, pre-adults and adult male, mobile and mature female L. salmonis were recorded for each fish. No distinction was made between chalimus stages I-IV or between pre-adult and adult male stages.
Efficacy was calculated using the formula:
% Efficacy=100−(100×mean of treatment group/mean of control).

[1] = 3 mg/kg/day 7 days in-feed, 1 month post-treatment
[2] = 3 mg/kg/day 7 days in-feed, 1 week post-treatment
[3] = 3 mg/kg/day 7 days in-feed, 2 month post-treatment
[4] = 3 mg/kg/day 7 days in-feed, 3 month post-treatment
[5] = 3 mg/kg/day 7 days in-feed, 4 month post-treatment
[6] = 3 mg/kg/day 7 days in-feed, 5 month post-treatment
[7] = 3 mg/kg/day 7 days in-feed, 6 month post-treatment
[8] = 3 mg/kg/day 7 days in-feed, 1 day post-treatment
[9] = 5 mg/kg/day 7 days in-feed, 1 month post-treatment
[10] = 5 mg/kg/day 7 days in-feed, 1 week post-treatment
[11] = 5 mg/kg/day 7 days in-feed, 2 month post-treatment
[12] = 5 mg/kg/day 7 days in-feed, 3 month post-treatment
[13] = 5 mg/kg/day 7 days in-feed, 4 month post-treatment
[14] = 5 mg/kg/day 7 days in-feed, 5 month post-treatment
[15] = 5 mg/kg/day 7 days in-feed, 6 month post-treatment
[16] = 5 mg/kg/day 7 days in-feed, 7 month post-treatment
[17] = 5 mg/kg/day 7 days in-feed, 8 month post-treatment
[18] = 5 mg/kg/day 7 days in-feed, 9 month post-treatment
[19] = 5 mg/kg/day 7 days in-feed, 1 day post-treatment
[20] = 10 mg/kg/day 7 days in-feed, 1 month post-treatment
[21] = 10 mg/kg/day 7 days in-feed, 1 week post-treatment
[22] = 10 mg/kg/day 7 days in-feed, 2 month post-treatment
[23] = 10 mg/kg/day 7 days in-feed, 3 month post-treatment
[24] = 10 mg/kg/day 7 days in-feed, 4 month post-treatment
[25] = 10 mg/kg/day 7 days in-feed, 5 month post-treatment
[26] = 10 mg/kg/day 7 days in-feed, 6 month post-treatment
[27] = 10 mg/kg/day 7 days in-feed, 7 month post-treatment
[28] = 10 mg/kg/day 7 days in-feed, 8 month post-treatment
[29] = 10 mg/kg/day 7 days in-feed, 9 month post-treatment
[30] = 10 mg/kg/day 7 days in-feed, 1 day post-treatment

Structure (SMILES): O=C(NC(=O)c1c(F)cccc1F)Nc1cc(Cl)c(OC(F)(F)C(F)C(F)(F)F)cc1Cl (stereo not shown) [lufenuron, N-{[2,5-Dichlor-4-(1,1,2,3,3,3-hexafluorpropoxy)phenyl]carbamoyl}-2,6-difluorbenzamid]
- L. salmonis: all stages, Treated, average group counts [1]: 0.00
- L. salmonis: pre- & adults, Efficacy [1]: 100%
- L. salmonis: pre- & adults, Treated, average group counts [1]: 0.00
- L. salmonis: all stages, Treated, average group counts [2]: 0.10
- L. salmonis: pre- & adults, Treated, average group counts [2]: 0.10
- L. salmonis: all stages, Treated, average group counts [3]: 0.30
- L. salmonis: pre- & adults, Efficacy [3]: 95%
- L. salmonis: pre- & adults, Treated, average group counts [3]: 0.10
- L. salmonis: all stages, Treated, average group counts [4]: 0.20
- L. salmonis: pre- & adults, Efficacy [4]: 95%
- L. salmonis: pre- & adults, Treated, average group counts [4]: 0.10
- L. salmonis: all stages, Treated, average group counts [5]: 0.00
- L. salmonis: pre- & adults, Efficacy [5]: 100%
- L. salmonis: pre- & adults, Treated, average group counts [5]: 0.00
- L. salmonis: all stages, Treated, average group counts [6]: 0.10
- L. salmonis: pre- & adults, Efficacy [6]: 97%
- L. salmonis: pre- & adults, Treated, average group counts [6]: 0.10
- L. salmonis: all stages, Treated, average group counts [7]: 1.30
- L. salmonis: pre- & adults, Efficacy [7]: 50%
- L. salmonis: pre- & adults, Treated, average group counts [7]: 1.30
- L. salmonis: all stages, Treated, average group counts [8]: 0.10
- L. salmonis: pre- & adults, Treated, average group counts [8]: 0.10
- L. salmonis: all stages, Treated, average group counts [9]: 1.90
- L. salmonis: pre- & adults, Efficacy [9]: 90%
- L. salmonis: pre- & adults, Treated, average group counts [9]: 0.10
- L. salmonis: all stages, Treated, average group counts [10]: 0.00
- L. salmonis: pre- & adults, Treated, average group counts [10]: 0.00
- L. salmonis: all stages, Treated, average group counts [11]: 0.00
- L. salmonis: pre- & adults, Efficacy [11]: 100%
- L. salmonis: pre- & adults, Treated, average group counts [11]: 0.00
- L. salmonis: all stages, Treated, average group counts [12]: 0.20
- L. salmonis: pre- & adults, Efficacy [12]: 91%
- L. salmonis: pre- & adults, Treated, average group counts [12]: 0.20
- L. salmonis: all stages, Treated, average group counts [13]: 0.10
- L. salmonis: pre- & adults, Efficacy [13]: 96%
- L. salmonis: pre- & adults, Treated, average group counts [13]: 0.10
- L. salmonis: all stages, Treated, average group counts [14]: 0.10
- L. salmonis: pre- & adults, Efficacy [14]: 97%
- L. salmonis: pre- & adults, Treated, average group counts [14]: 0.10
- L. salmonis: all stages, Treated, average group counts [15]: 0.60
- L. salmonis: pre- & adults, Efficacy [15]: 77%
- L. salmonis: pre- & adults, Treated, average group counts [15]: 0.60
- L. salmonis: all stages, Treated, average group counts [16]: 1.80
- L. salmonis: pre- & adults, Efficacy [16]: 88%
- L. salmonis: pre- & adults, Treated, average group counts [16]: 0.60
- L. salmonis: all stages, Treated, average group counts [17]: 0.50
- L. salmonis: pre- & adults, Efficacy [17]: 90%
- L. salmonis: pre- & adults, Treated, average group counts [17]: 0.50
- L. salmonis: all stages, Treated, average group counts [18]: 0.40
- L. salmonis: pre- & adults, Efficacy [18]: 94%
- L. salmonis: pre- & adults, Treated, average group counts [18]: 0.40
- L. salmonis: all stages, Treated, average group counts [19]: 0.00
- L. salmonis: pre- & adults, Treated, average group counts [19]: 0.00
- L. salmonis: all stages, Treated, average group counts [20]: 3.10
- L. salmonis: pre- & adults, Efficacy [20]: 100%
- L. salmonis: pre- & adults, Treated, average group counts [20]: 0.00
- L. salmonis: all stages, Treated, average group counts [21]: 0.20
- L. salmonis: pre- & adults, Treated, average group counts [21]: 0.00
- L. salmonis: all stages, Treated, average group counts [22]: 0.00
- L. salmonis: pre- & adults, Efficacy [22]: 100%
- L. salmonis: pre- & adults, Treated, average group counts [22]: 0.00
- L. salmonis: all stages, Treated, average group counts [23]: 0.10
- L. salmonis: pre- & adults, Efficacy [23]: 95%
- L. salmonis: pre- & adults, Treated, average group counts [23]: 0.10
- L. salmonis: all stages, Treated, average group counts [24]: 0.00
- L. salmonis: pre- & adults, Efficacy [24]: 100%
- L. salmonis: pre- & adults, Treated, average group counts [24]: 0.00
- L. salmonis: all stages, Treated, average group counts [25]: 0.00
- L. salmonis: pre- & adults, Efficacy [25]: 100%
- L. salmonis: pre- & adults, Treated, average group counts [25]: 0.00
- L. salmonis: all stages, Treated, average group counts [26]: 0.30
- L. salmonis: pre- & adults, Efficacy [26]: 96%
- L. salmonis: pre- & adults, Treated, average group counts [26]: 0.10
- L. salmonis: all stages, Treated, average group counts [27]: 0.80
- L. salmonis: pre- & adults, Efficacy [27]: 98%
- L. salmonis: pre- & adults, Treated, average group counts [27]: 0.10
- L. salmonis: all stages, Treated, average group counts [28]: 0.10
- L. salmonis: pre- & adults, Efficacy [28]: 98%
- L. salmonis: pre- & adults, Treated, average group counts [28]: 0.10
- L. salmonis: all stages, Treated, average group counts [29]: 0.00
- L. salmonis: pre- & adults, Efficacy [29]: 100%
- L. salmonis: pre- & adults, Treated, average group counts [29]: 0.00
- L. salmonis: all stages, Treated, average group counts [30]: 0.00
- L. salmonis: pre- & adults, Treated, average group counts [30]: 0.00
- protected the fish against sea louse infestation until (time post-treatment) (Example 1, 3 mg/kg treatment): 5 months
- protected the fish against sea louse infestation until (time post treatment) (Example 1, 5 mg/kg treatment): 9 months
- efficacy against sea lice at all time points (Example 1, 10 mg/kg group): more than 95%
- protected the fish against sea louse infestation up to the end of the study (time post treatment) (Example 1, 10 mg/kg treatment): 9 months
